From article PMC9054212, “Discovery of 4-(2-(dimethylamino)ethoxy)benzohydrazide derivatives as prospective microtubule affinity regulating kinase 4 inhibitors” (RSC Advances, 2020)
Where two headings read alike, the source gives them in different places.

Experiments:
HEK293 cells = test: MTT cell viability assay, non-cancerous HEK293; format: cell-based, human; conditions: at the IC50 or active concentration, compared with cancerous cells
Description: (§1) Human cell lines (HEK-293, A549 and MCF-7) were seeded and maintained in a medium supplemented with DMEM along with 10% heat-inactivated fetal bovine serum (Gibco) and 1% penicillin, streptomycin solution (Gibco), cultured in a 5% CO2 humidified incubator at 37 °C. Cell cultures were maintained and trypsinized regularly, not for more than 30 passages. MTT assay was carried out to see the effect of selected hydrazone compound treatment on the viability of non-cancerous (HEK-293) and cancerous cell lines (A549 and MCF-7) as per described method.[22,24] In brief, 6000–7000 cells per well were seeded in a 96-well plate and after 24 h growth, the cells were treated with increasing concentrations (0–200 μM) of each hydrazone (final volume of 200 μL) for 48 h at 37 °C in a humidified chamber. After 48 h, MTT was added (20 μL solution from 5 mg mL^−1 stock solution prepared in phosphate buffer saline, pH 7.4) to each well and plates were further incubated for 4–5 h at 37 °C in a CO2 incubator. The supernatant was aspirated and the formazan crystals were dissolved in 150 μL of DMSO. The absorbance (A) of final products was measured using multiplate ELISA reader (BioRad) at 570 nm. The percentage of cell viability was calculated and IC50 (50% inhibitory concentration) values of each hydrazone derivative were estimated (paclitaxel was taken as a positive control for cell proliferation studies).

A549 cells [1] = test: MTT cell proliferation assay, A549; format: cell-based; conditions: Homo sapiens, read-out: IC50, cell proliferation, A549 cells
Description: as §1

[2] = target: human serum albumin (HSA) (Homo sapiens, UniProt P02768); test: Fluorescence quenching binding study with HSA; conditions: Stern–Volmer plot, ligand 0–20 μM, HSA 5–10 μM
human serum albumin (HSA), sequence (P02768 25-609): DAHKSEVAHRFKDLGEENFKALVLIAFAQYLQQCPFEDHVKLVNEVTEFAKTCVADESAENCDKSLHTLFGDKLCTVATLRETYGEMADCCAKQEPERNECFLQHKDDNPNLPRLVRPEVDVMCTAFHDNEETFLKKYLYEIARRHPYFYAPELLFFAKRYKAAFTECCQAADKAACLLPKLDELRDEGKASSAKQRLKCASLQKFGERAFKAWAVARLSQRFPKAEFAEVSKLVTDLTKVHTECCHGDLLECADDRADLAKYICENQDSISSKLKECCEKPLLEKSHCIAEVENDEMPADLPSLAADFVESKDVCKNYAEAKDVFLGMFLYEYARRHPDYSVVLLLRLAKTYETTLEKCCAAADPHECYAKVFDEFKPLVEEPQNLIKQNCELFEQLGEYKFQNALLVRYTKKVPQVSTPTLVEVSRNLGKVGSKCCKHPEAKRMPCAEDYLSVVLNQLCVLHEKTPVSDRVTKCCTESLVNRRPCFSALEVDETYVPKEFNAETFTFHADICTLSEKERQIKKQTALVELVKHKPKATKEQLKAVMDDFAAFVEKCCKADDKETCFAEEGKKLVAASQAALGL
Description: (§2) The binding affinity of selected hydrazone derivatives with human serum albumin (HSA) and MARK4 was carried out using fluorescence binding studies as described.[39] The values of binding constant (Ka) and a number of binding sites present in protein (n) were obtained by using the modified Stern–Volmer equation from the intercept and slope, respectively.
(§3) To measure the actual binding affinity of selected ligands with MARK4 and HSA, fluorescence quenching studies were performed.[43,44] Both MARK4 and HSA contain tryptophan residues, therefore it has been used as an intrinsic fluorophore to estimate the interaction of ligand. Protein was excited at 280 nm and the emission spectrum was recorded in 300–400 nm range. With increasing ligand concentrations (0–20 μM), the fluorescence intensity of MARK4 and HSA was decreases in a concentration-dependent manner (Fig. 3 and 4), indicating a considerable binding. Values of Ka and n were calculated from fluorescence emission spectra using the Stern–Volmer plot. […]
(§4) Fig. 4 Binding of compound H4 and H19 with HSA. (A) Fluorescence emission spectra of HSA (5–10 μM) with increasing concentrations of compound H4 and H19. (B) Stern–Volmer plot obtained from the fluorescence quenching data of HSA by compound H4 and H19, respectively. Protein sample was excited at 280 nm and emission for each titration was recorded in the range of 300–400 nm. […]

A549 cells [3] = test: Trans-well cell migration assay, A549; format: cell-based, human; conditions: IC50 concentration, 24 h, Boyden chamber, vs control
Description: (§5) Trans-well migration assay was performed using a modified Boyden chamber containing cell culture inserts (8 μm pore size, polyethylene terephthalate track-etched membrane, BD Falcon #353093). Briefly, cells were serum-starved for 3–4 h, trypsinized and suspended in a serum-free medium. In the upper chamber of cell culture insert, an equal number of cells with the IC50 dose of selected compounds or DMSO (control) were plated and in the lower chamber of well plate, 10% FBS-DMEM (for chemotaxis movement) was added. The cells were allowed to migrate for 24 h in a humidified 5% CO2 incubator at 37 °C and the migrated cells (that invaded through membrane pores) onto the lower side of Trans-well cell culture insert were fixed with methanol and staining was performed using 0.4% crystal violet in 25% methanol. The remaining cells present on the upper side of the chamber were wiped off with the help of cell scrapper/tissue wipes. Finally, the migrated cells present on the lower surface of the cell culture insert were imaged using a light microscope and counted in 3–5 random fields.

MCF-7 cells [4] = test: MTT cell proliferation assay, MCF-7; format: cell-based; conditions: Homo sapiens, read-out: IC50, cell proliferation, MCF-7 cells
Description: as §1

A549 cells [5] = test: Colony formation assay, A549; format: cell-based, human; conditions: IC50 concentration, 10–12 days, vs control
Description: (§6) The colony-forming assay was performed to evaluate the effect of selected compounds on cell colonization potential of cancer cells. Briefly, cells were plated at a density of 1000–2000 (A549/MCf-7) cells per well in a six-well cell culture plate. Cells were grown for at least 24 h in cell growth medium and then incubated with IC50 concentration of selected compounds for 10–12 days at 37 °C (in a humidified 5% CO2 incubator). Control cells were treated with an equal percentage of DMSO. After 10–12 days, the cell colonies were fixed with 100% methanol and staining was performed using 0.4% crystal violet in 25% methanol. The colonies obtained was counted, plotted and compared with the controls.

[6] = tested on: MARK4 and p-tau in MCF-7 cells; test: Immunoblotting of MARK4 and p-tau in treated MCF-7 cells; format: cell-based, human; conditions: IC50 concentration, vs control
Description: The compound treated cell line samples were lysed in RIPA cell lysis buffer (Thermo Fisher Scientific, USA) in an ice-cold condition using ultrasonication. Total protein was isolated and protein estimation was performed using Bicinchoninic Acid Assay (BCA-protein estimation kit). Nearly 30–40 μg of whole protein lysate was diluted with 6× Laemmli's buffer, boiled for 3–5 min and resolved using 10–12% SDS-polyacrylamide electrophoresis under reducing conditions. The resolved polypeptides were transferred to polyvinylidene fluoride (PVDF) membrane through blotting, peptide-specific primary antibodies were used for identification and horseradish peroxidase coupled conjugates were used for visualization using luminol as a chemiluminescent substrate.[40]
Next, we tried to see the inhibition potential of these molecules at the cellular level. Cells were treated with IC50 concentration of each molecule and processed for the expression studied of MARK4 and p-tau (substrate of MARK4). […] Phosphorylation of tau correspondingly decreases in the treated cells as compared to control (Fig. 1B).

MCF-7 cells [7] = test: Trans-well cell migration assay, MCF-7; format: cell-based, human; conditions: IC50 concentration, 24 h, Boyden chamber, vs control
Description: as §5

MCF-7 cells [8] = test: Annexin-V/PI apoptosis assay by flow cytometry, MCF-7; format: cell-based, human; conditions: IC50 concentration, 48 h
Description: (§7) Annexin-V staining was used to assess the apoptotic potential of the selected hydrazones as described.[22,41] Briefly, cells were treated with IC50 concentration of selected hydrazones for 24 h and control cells were treated with DMSO/culture medium only. After 24 h incubation, approximately 2.0–2.5 × 10^6 cells were collected by trypsinization and washed twice with PBS (5–10 mL). Finally, FITC labelled Annexin-V and PE labelled PI was used for staining the cells using the FITC-Annexin-V kit by following manufacture instructions (BD-Biosciences, USA). Nearly, 10 000 events were recorded using BD LSR II Flow Cytometry Analyzer and analyzed by FlowJo software.
(§8) Cancer cells support their growth and maintenance by evading the apoptotic pathways.[48] MARK4 regulates the cancer cell growth and proliferation via modulating the apoptotic pathways.[12,15,46] The treatment of MCF-7 and A549 cells with H4 and H19 inhibit the activity of MARK4, decreases cell proliferation and migration raises the evaluation of these MARK4 inhibitors for the apoptosis induction. Thus, to investigate whether the selected inhibitor induces cell death via apoptosis or not, we have performed Annexin-V/PI staining using flow cytometry. Cells were treated with IC50 concentration of each molecule for 48 h and processed for apoptosis analysis. […]

MCF-7 cells [9] = test: Colony formation assay, MCF-7; format: cell-based, human; conditions: IC50 concentration, 10–12 days, vs control
Description: as §6

MARK4 [10] = target: T1, MARK4 (Homo sapiens, UniProt Q96L34); test: Fluorescence quenching binding study with MARK4; conditions: Stern–Volmer plot, ligand 0–20 μM, MARK4 5 μM
T1 construct: MARK4 protein was expressed and purified by following previous protocols; made in house
T1 sequence (Q96L34 1-752): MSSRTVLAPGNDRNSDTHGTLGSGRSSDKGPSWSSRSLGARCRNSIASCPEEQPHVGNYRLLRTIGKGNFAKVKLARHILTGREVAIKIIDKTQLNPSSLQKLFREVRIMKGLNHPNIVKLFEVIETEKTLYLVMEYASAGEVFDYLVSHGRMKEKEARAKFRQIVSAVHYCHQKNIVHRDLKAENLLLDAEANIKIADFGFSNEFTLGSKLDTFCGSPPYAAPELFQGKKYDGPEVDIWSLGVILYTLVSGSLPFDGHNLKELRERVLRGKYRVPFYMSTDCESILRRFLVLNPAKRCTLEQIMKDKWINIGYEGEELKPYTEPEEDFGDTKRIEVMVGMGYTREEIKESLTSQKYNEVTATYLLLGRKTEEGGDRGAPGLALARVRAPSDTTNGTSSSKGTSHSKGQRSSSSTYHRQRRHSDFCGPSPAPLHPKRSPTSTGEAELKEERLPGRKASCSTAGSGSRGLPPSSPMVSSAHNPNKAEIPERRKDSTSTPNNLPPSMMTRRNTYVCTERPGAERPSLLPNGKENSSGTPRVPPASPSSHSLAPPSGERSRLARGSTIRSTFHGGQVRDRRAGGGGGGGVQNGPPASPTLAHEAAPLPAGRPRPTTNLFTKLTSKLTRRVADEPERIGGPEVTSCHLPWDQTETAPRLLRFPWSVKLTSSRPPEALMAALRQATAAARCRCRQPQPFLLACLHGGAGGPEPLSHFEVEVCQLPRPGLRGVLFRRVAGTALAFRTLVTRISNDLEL
Description: as §2, §3
as §4, with “Fig. 3” for “Fig. 4”, “with MARK4.” for “with HSA.”, “of MARK4 (5” for “of HSA (5–10”, “of MARK4” for “of HSA”

A549 cells [11] = test: Annexin-V/PI apoptosis assay by flow cytometry, A549; format: cell-based, human; conditions: IC50 concentration, 48 h
Description: as §7, §8

MARK4 [12] = target: T1, MARK4; test: MARK4 ATPase enzyme inhibition assay; format: biochemical
Description: MARK4 protein was expressed and purified by following previous protocols.[27,37] The purity of the protein was further confirmed by a single band shown by SDS PAGE. ATPase assay was carried out to evaluate the enzyme activity of MARK4 in the presence of selected hydrazone derivatives. The activity of MARK4 was studied with the increasing concentration of each selected hydrazone derivative by following our published protocol.[24,38]
To further evaluate the inhibitory potential of selected compounds with MARK4, enzyme inhibition assay was performed (at a single dose of 10 μM). […] Thus, these two compounds were further selected and evaluated with MARK4 in a concentration-dependent manner. […] The percent inhibition of ATPase activity was plotted as a function of ligand concentration and used to estimate IC50 (concentration of 50% inhibition, Fig. 1A).

[13] = bound stated after screen at a single dose of 10 μM, read-out: IC50, MARK4 enzyme inhibition
[14] = cell-free, concentration-dependent, read-out: IC50, inhibition of ATPase activity of MARK4

| Structure (SMILES) | cytotoxicity to non-cancerous cells (HEK293 cells) | cell migration, A549 (A549 cells [3]) | number of colonies, A549 (A549 cells [5]) | protein level of MARK4 [6] | protein level of p-tau [6] | cell migration, MCF-7 (MCF-7 cells [7]) | apoptosis induced, share of MCF-7 cells (MCF-7 cells [8]) | number of colonies, MCF-7 (MCF-7 cells [9]) | apoptosis induced, share of A549 cells (A549 cells [11]) | IC50 (MARK4 [12]; [13]) | IC50 (MARK4 [12]; [14]) | melting point | also measured |
| --- | --- | --- | --- | --- | --- | --- | --- | --- | --- | --- | --- | --- | --- |
| CN(C)CCOc1ccc(C(=O)NN=Cc2ccc(Cl)cc2)cc1 [H4] | less toxic | lesser number of cells were migrated | significantly decreased | decreases | decreases | lesser number of cells were migrated | 30.29% | significantly decreased | 28.5% | < 1 µM | 0.149 µM |  | IC50 (A549 cells [1]; A549, MTT, 48 h, 0–200 μM): 45.2 µM; binding constant Ka for HSA [2]: 443000 M⁻¹; IC50 (MCF-7 cells [4]; MCF7, MTT, 48 h, 0–200 μM): 27.4 µM; binding constant Ka for MARK4 (MARK4 [10]): 4.07e+09 M⁻¹ |
| CN(C)CCOc1ccc(C(=O)NN=Cc2cccc([N+](=O)[O-])c2)cc1 [H5] |  |  |  |  |  |  |  |  |  |  |  | 125 to 130 °C |  |
| CN(C)CCOc1ccc(C(=O)NN=Cc2ccc([N+](=O)[O-])cc2)cc1 [H6] |  |  |  |  |  |  |  |  |  |  |  | 96 to 100 °C |  |
| CN(C)CCOc1ccc(C(=O)NN=Cc2ccccc2O)cc1 [H7] |  |  |  |  |  |  |  |  |  |  |  | 149 to 153 °C |  |
| CN(C)CCOc1ccc(C(=O)NN=Cc2ccc(O)cc2)cc1 [H8] |  |  |  |  |  |  |  |  |  |  |  | 109 to 114 °C |  |
| Cc1cc(C)c(C=NNC(=O)c2ccc(OCCN(C)C)cc2)c(C)c1 [H19] | less toxic | lesser number of cells were migrated | significantly decreased | decreases | decreases | lesser number of cells were migrated | 26.71% | significantly decreased | 24.25% | < 1 µM | 0.215 µM |  | IC50 (A549 cells [1]; A549, 48 h): 61.5 µM; Kd ([2]; read-out: binding constant Ka for HSA (converted)): 7.69 µM; IC50 (MCF-7 cells [4]; MCF7, 48 h): 34.4 µM; Kd (MARK4 [10]; read-out: binding constant Ka for MARK4 (converted)): 0.0104 µM |
